Series [1] in a line: Pharmacokinetic parameters after intravenous administration to rats. The conditions noted are these: male, Han/Wistar, rat, in vivo, 20 nmol/kg. The procedure:
Pharmacokinetic parameters of the test compounds were determined after intravenous administration to Han/Wistar rats. The acylated GLP-1 analogue semaglutide was also tested for comparison purposes. Male Wistar rats were obtained from Charles River (Germany) weighing approximately 180 to 210 g at time of arrival at the test facility. Rats were caged in European standard rat cages type IV with light cycle of 12-hour dark and 12-hour light. During the study rats were housed in standard rat cages type III. Both diet Altromin 1324 (Altromin, Germany) and water was administered ad libitum during the whole experimental period. The animals were housed in the test facility for at least 4 days in order to assure proper acclimatization. The compounds were first dissolved in 0.1% aqueous ammonia to a nominal concentration of 2 mg/ml, and then diluted to the desired dosing strength (10 μM) in sterile PBS containing 25 mM phosphate buffer, pH 7.4. Intravenous injections corresponding to 20 nmol/kg were given via a lateral tail vein. Blood samples (200 μl) were collected from the periorbital plexus at time points 0.08, 0.25, 0.5, 1, 2, 4, 8, 24, 32 and 48 h post dosing into K3EDTA tubes and centrifuged for 5 minutes at 4° C. within 20 minutes of sampling. […] Individual plasma concentration-time profiles were analysed by a non-compartmental approach using ToxKin™ version 3.2 (Unilog IT Services), and the resulting pharmacokinetic parameters were determined.

For series [2], the target named is T1, endogenous glucagon receptor (Rattus norvegicus, UniProt P30082).
T1 construct: Agonistic activity of the test compounds on endogenous glucagon receptor; endogenous in cells; host or cells: primary rat hepatocytes
T1 sequence (P30082 27-485): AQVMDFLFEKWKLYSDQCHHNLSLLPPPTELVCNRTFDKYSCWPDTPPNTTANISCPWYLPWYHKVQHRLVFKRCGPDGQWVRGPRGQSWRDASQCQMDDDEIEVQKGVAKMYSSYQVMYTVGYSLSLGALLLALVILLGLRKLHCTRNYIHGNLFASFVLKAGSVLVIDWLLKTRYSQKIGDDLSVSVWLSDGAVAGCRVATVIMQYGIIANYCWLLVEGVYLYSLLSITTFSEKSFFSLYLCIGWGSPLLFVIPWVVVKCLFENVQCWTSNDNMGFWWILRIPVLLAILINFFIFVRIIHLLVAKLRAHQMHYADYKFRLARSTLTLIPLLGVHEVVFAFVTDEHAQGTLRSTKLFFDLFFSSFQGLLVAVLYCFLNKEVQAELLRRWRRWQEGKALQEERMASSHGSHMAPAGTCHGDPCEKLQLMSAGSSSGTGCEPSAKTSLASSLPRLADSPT
In words: Agonistic activity on endogenous glucagon receptor (glycogen synthesis rate in primary rat hepatocytes). The series is classed as cell-based. The conditions noted are these: inhibition of glycogen synthesis rate (14C-glucose incorporation), 3 hours. On the procedure: Agonistic activity of the test compounds on endogenous glucagon receptor was determined by measuring their effect on rate of glycogen synthesis in primary rat hepatocytes. Upon activation of the glucagon receptor, an inhibition of the glycogen synthesis rate is expected. Rate of glycogen synthesis was determined by counting the amount of radioactively labeled glucose incorporated into the cellular glycogen stores in a defined period of time.
Primary rat hepatocytes were cultured at a density of 40,000 cells/well in a 24-well plate for 24 hours at 37° C. and 5% CO2.
Medium was discarded and the cells washed with PBS. 180 μL of KRBH-based buffer containing 0.1% BSA and glucose at a concentration of 22.5 mM was then added to the wells, followed by test compound and 40 μCi/ml D-[U14C] glucose (20 μL each). Incubation was continued for 3 hours.
At the end of the incubation period, the incubation buffer was aspirated and cells washed once with ice-cold PBS before lysis by incubation for 30 min at room temperature with 100 μL 1 mol/l NaOH.
Cell lysates were transferred to 96-well filter plates and glycogen precipitated by incubating the filter-plates for 120 min at 4° C. followed by washing the filter plates 4 times with ice-cold ethanol (70%). The resulting precipitates were filtered to dryness and the amount of incorporated ^14C-glucose determined by using a Topcount scintillation counter according to manufacturer's recommendations.
Wells with vehicle controls (0.1% (v/v) DMSO in KRBH buffer) were included as reference for non-inhibited glycogen synthesis (100% CTL). Wells without added D-[U^14C] glucose were included as controls for non-specific background signal (subtracted from all values). Endogenous glucagon peptide was used as a positive control.
All treatments were performed at least in duplicates.
Parameters calculated to describe both the potency as well as the agonistic activity of each test compound on the endogenous glucagon receptor are pEC50 and % CTL.
% CTL is determined by calculating the percentage of CPM/well in the presence of the test compound compared to the CPM/well of the vehicle control after subtracting the background CPM/well: [CPM/well(basal)−CPM/well(sample)]*100/[CPM/well(basal)−CPM/well(control)]
An activator of the glucagon receptor will result in an inhibition of the glycogen synthesis rate and will give % CTL values between 0% CTL (complete inhibition) and 100% CTL (no observable inhibition).
The resulting activity curves were plotted as absolute counts (unit: cpm/sample) over log (test compound concentration) and analyzed using the curve fitting program XLfit.
pEC50 (negative logarithmic value of EC50) reflects the potency of the test compound. […]

The target in series [3] is T2, human glucagon-like peptide 1 receptor (GLP-1R) (Homo sapiens, UniProt P43220).
T2 construct: expressed in transfected cells
T2 sequence (P43220 24-463): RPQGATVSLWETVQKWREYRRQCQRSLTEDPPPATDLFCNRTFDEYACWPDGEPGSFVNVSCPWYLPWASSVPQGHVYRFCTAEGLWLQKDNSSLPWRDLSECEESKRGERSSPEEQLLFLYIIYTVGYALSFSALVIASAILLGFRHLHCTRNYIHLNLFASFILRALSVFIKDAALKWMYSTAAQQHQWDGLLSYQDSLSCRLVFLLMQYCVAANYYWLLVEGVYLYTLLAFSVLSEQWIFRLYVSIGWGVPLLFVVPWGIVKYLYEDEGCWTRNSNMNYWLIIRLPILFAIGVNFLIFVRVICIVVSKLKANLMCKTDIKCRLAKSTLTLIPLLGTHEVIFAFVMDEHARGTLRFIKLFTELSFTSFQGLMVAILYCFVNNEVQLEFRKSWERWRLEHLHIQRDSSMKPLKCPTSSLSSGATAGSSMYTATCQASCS
The experiment in a line: GLP-1 receptor efficacy assay (cAMP AlphaScreen, CHO cells). Format: cell-based. The conditions noted are these: for Ratio GLP-1/Glucagon: EC50 [GLP-1R] / EC50 [Glucagon-R], human receptors in CHO-K1. The source says: (§1) The cDNA encoding either the human glucagon receptor (Glucagon-R) (primary accession number P47871) or the human glucagon-like peptide 1 receptor (GLP-1R) (primary accession number P43220) were synthesized and cloned into a mammalian expression vector containing a Zeocin resistance marker.
(§2) The mammalian expression vectors encoding the Glucagon-R or the GLP-1-R were transfected into Chinese hamster ovary (CHO) cells by the Attractene method. Stably expressing clones were obtained by Zeocin selection (250 μg/mL) upon limited dilution of cells resistant to the selection pressure. Glucagon-R and GLP-1-R cell clones expressing were picked, propagated and tested in the Glucagon-R and GLP-1-R efficacy assays as described below. One Glucagon-R expressing clone and one GLP-1-R expressing clone were chosen for compound profiling.
(§3) CHO cells expressing the human Glucagon-R, or human GLP-1-R were seeded 24 hours prior to the assay at 30,000 cells per well in 96-well microtiter plates in culture in 100 μl growth medium. On the day of analysis, growth medium was removed and the cells were washed once with 200 μl of assay buffer (Krebs-Ringer-buffer—KRBH). The buffer was removed and the cells were incubated for 15 min at room temperature in 10 μl KRBH (KRBH+10 mM HEPES, 5 mM NaHCO3, 0.1% (V/V) BSA) with 0.1 mM IBMX in deionized water containing increasing concentrations of test peptides. The reaction was stopped by the addition of lysis buffer (0.1% w/v BSA, 5 mM HEPES, 0.3% v/v Tween-20). After cell lysis for 10 min at room temperature, lysates were transferred to 384-well plates and 10 μl of acceptor/donorbead mixture as contained in the AlphaScreen™ cAMP Functional Assay Kit was added. After one hour of incubation at room temperature in the dark, the cAMP content was determined applying the AlphaScreen™ cAMP Functional Assay Kit from Perkin-Elmer according to manufacturer instructions. EC50 and relative efficacies compared to reference compounds (glucagon and GLP-1) were calculated applying computer aided curve fitting. The GLP-1/glucagon ratio is calculated as defined earlier.
(In general: In Alpha technology, singlet oxygen from a donor bead excites a nearby acceptor bead.)

For series [4], the target named is T3, human glucagon receptor (Glucagon-R) (Homo sapiens, UniProt P47871).
T3 construct: expressed in transfected cells
T3 sequence (P47871 26-477): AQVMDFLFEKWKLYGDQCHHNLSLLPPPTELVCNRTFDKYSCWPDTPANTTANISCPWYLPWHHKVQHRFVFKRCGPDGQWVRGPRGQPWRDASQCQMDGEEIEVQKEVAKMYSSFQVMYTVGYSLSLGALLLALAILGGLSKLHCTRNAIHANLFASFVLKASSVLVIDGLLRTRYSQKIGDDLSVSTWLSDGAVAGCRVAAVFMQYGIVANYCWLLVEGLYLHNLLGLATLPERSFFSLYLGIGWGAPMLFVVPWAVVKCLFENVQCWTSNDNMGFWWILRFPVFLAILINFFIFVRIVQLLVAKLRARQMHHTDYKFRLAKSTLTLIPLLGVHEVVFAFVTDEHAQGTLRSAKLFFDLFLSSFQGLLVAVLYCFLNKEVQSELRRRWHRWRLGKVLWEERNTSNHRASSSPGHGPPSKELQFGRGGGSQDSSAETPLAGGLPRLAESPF
In words: Glucagon receptor efficacy assay (cAMP AlphaScreen, CHO cells). The series is classed as cell-based. The conditions noted are these: cAMP formation, CHO cells expressing human Glucagon-R, 15 min; read-out: EC50 hGCGR CHO-K1.
Text: as §1, §2, §3

In general, MRT refers to a mean duration of stay, worked out from the concentration-time curve. A word on the clearance: it is a measure of how efficiently the substance is removed, as volume per time. A higher clearance goes with efficient removal. As a reminder, the half-life is the time needed for the level to fall by half in the phase considered. In general, EC50 refers to the midpoint of the concentration-response curve.

*1 amine or outer side, *2 acyl side, *3 side chain or, on linkers, in order; H or OH if unused. Where a SMILES comes first, the peptide text is derived from it. Side-chain parts run from the residue outwards. [ ]: non-standard residue; d: D form. The star is where a group is joined. C18 diacid = O=C(O)CCCCCCCCCCCCCCCCC(=O)*; γGlu = O=C(O)[C@H](CCC(=O)[*:2])N[*:1]; Ac4c = NC1(C(=O)O)CCC1; AEEA = NCCOCCOCC(=O)O; Aib = CC(C)(N)C(=O)O

In series [1], `CC[C@H](C)[C@H](NC(=O)[C@H](Cc1ccccc1)NC(=O)[C@H](CC(=O)O)NC(=O)[C@H](CCCCN)NC(=O)[C@H](C)NC(=O)[C@H](C)NC(=O)[C@H](CCCNC(=N)N)NC(=O)[C@H](CCCCNC(=O)COCCOCCNC(=O)COCCOCCNC(=O)CC[C@H](NC(=O)CCCCCCCCCCCCCCCCC(=O)O)C(=O)O)NC(=O)[C@H](CC(=O)O)NC(=O)[C@H](CC(C)C)NC(=O)[C@H](Cc1ccc(O)cc1)NC(=O)[C@H](CCCCN)NC(=O)[C@H](CO)NC(=O)[C@H](Cc1ccc(O)cc1)NC(=O)[C@H](CC(=O)O)NC(=O)[C@H](CO)NC(=O)[C@@H](NC(=O)[C@H](Cc1ccccc1)NC(=O)[C@@H](NC(=O)CNC(=O)[C@H](CCC(N)=O)NC(=O)C(C)(C)NC(=O)[C@@H](N)Cc1c[nH]cn1)[C@@H](C)O)[C@@H](C)O)C(=O)N[C@@H](CCC(=O)O)C(=O)N[C@@H](Cc1c[nH]c2ccccc12)C(=O)N[C@@H](CC(C)C)C(=O)N[C@@H](CCC(=O)O)C(=O)N[C@@H](CO)C(=O)N[C@@H](C)C(N)=O` [Compound 2, H-H-Aib-QGTFTSDYSKYLD-K([17-carboxy-heptadecanoyl]-isoGlu-Peg3-Peg3)-RAAKDFIEWLESA-NH2] (H-H[Aib]QGTFTSDYSKYLDK([AEEA-AEEA-γGlu-C18 diacid])RAAKDFIEWLESA-NH2) showed an MRT of 13.6 h, a clearance of 0.11 mL/min/kg and a half-life of 546 min. Also, the EC50 in series [2] was determined as 0.11 nM. Moreover, the “Ratio GLP-1/Glucagon” value in series [3] came out at 13.54.

With `CC[C@H](C)[C@H](NC(=O)[C@H](Cc1ccccc1)NC(=O)[C@H](CC(=O)O)NC(=O)[C@H](CCCCN)NC(=O)[C@H](C)NC(=O)[C@H](CCCNC(=N)N)NC(=O)[C@H](CCCCNC(=O)COCCOCCNC(=O)COCCOCCNC(=O)CC[C@H](NC(=O)CCCCCCCCCCCCCCCCC(=O)O)C(=O)O)NC(=O)[C@H](CCC(=O)O)NC(=O)[C@H](CC(=O)O)NC(=O)[C@H](CC(C)C)NC(=O)[C@H](Cc1ccc(O)cc1)NC(=O)[C@H](CCCCN)NC(=O)[C@H](CO)NC(=O)[C@H](Cc1ccc(O)cc1)NC(=O)[C@H](CC(=O)O)NC(=O)[C@H](CO)NC(=O)[C@@H](NC(=O)[C@H](Cc1ccccc1)NC(=O)[C@@H](NC(=O)CNC(=O)[C@H](Cc1c[nH]cn1)NC(=O)C1(NC(=O)[C@@H](N)Cc2c[nH]cn2)CCC1)[C@@H](C)O)[C@@H](C)O)C(=O)N[C@@H](CCC(=O)O)C(=O)N[C@@H](Cc1c[nH]c2ccccc12)C(=O)N[C@@H](CC(C)C)C(=O)N[C@@H](CCC(=O)O)C(=O)N[C@@H](CO)C(=O)N[C@@H](C)C(N)=O` [Compound 9, H-H-Ac4c-HGTFTSDYSKYLDE-K([17-carboxy-heptadecanoyl]-isoGlu-Peg3-Peg3)-RAKDFIEWLESA-NH2] (H-H[Ac4c]HGTFTSDYSKYLDEK([AEEA-AEEA-γGlu-C18 diacid])RAKDFIEWLESA-NH2), the EC50 in series [4] is 0.07 nM; in series [2], 0.11 nM; in series [3] (cAMP formation, CHO cells expressing human GLP-1-R, 15 min, read-out: EC50 hGLP-1R CHO-K1) it was 0.97 nM. In addition, the “Ratio GLP-1/Glucagon” value in series [3] was determined as 13.86.

`CC[C@H](C)[C@H](NC(=O)[C@H](Cc1ccccc1)NC(=O)[C@H](CC(=O)O)NC(=O)[C@H](CCCCN)NC(=O)[C@H](C)NC(=O)[C@H](CCCNC(=N)N)NC(=O)[C@H](CCCNC(=N)N)NC(=O)[C@H](CCC(=O)O)NC(=O)[C@H](CC(=O)O)NC(=O)[C@H](CC(C)C)NC(=O)[C@H](Cc1ccc(O)cc1)NC(=O)[C@H](CCCCN)NC(=O)[C@H](CO)NC(=O)[C@H](Cc1ccc(O)cc1)NC(=O)[C@H](CC(=O)O)NC(=O)[C@H](CO)NC(=O)[C@@H](NC(=O)[C@H](Cc1ccccc1)NC(=O)[C@@H](NC(=O)CNC(=O)[C@H](CCC(N)=O)NC(=O)C1(NC(=O)[C@@H](N)Cc2c[nH]cn2)CCC1)[C@@H](C)O)[C@@H](C)O)C(=O)N[C@@H](CCC(=O)O)C(=O)N[C@@H](Cc1c[nH]c2ccccc12)C(=O)N[C@@H](CC(C)C)C(=O)N[C@@H](CCC(=O)O)C(=O)N[C@@H](CCCCNC(=O)CNC(=O)CNC(=O)[C@H](CO)NC(=O)CNC(=O)[C@H](CO)NC(=O)CNC(=O)CC[C@H](NC(=O)CCCCCCCCCCCCCCCCC(=O)O)C(=O)O)C(=O)N[C@@H](C)C(N)=O` [Compound 16] displayed a concentration giving a half-maximal response (EC50) in series [2] of 0.19 nM. Also, the “Ratio GLP-1/Glucagon” value in series [3] is 3.31.

`CC[C@H](C)[C@H](NC(=O)[C@H](Cc1ccccc1)NC(=O)[C@H](CC(=O)O)NC(=O)[C@H](CCCCN)NC(=O)[C@H](C)NC(=O)[C@H](CCCNC(=N)N)NC(=O)[C@H](CCCCNC(=O)CC[C@H](NC(=O)CCCCCCCCCCCCCCCCC(=O)O)C(=O)O)NC(=O)[C@H](CCC(=O)O)NC(=O)[C@H](CC(=O)O)NC(=O)[C@H](CC(C)C)NC(=O)[C@H](Cc1ccc(O)cc1)NC(=O)[C@H](CCCCN)NC(=O)[C@H](CO)NC(=O)[C@H](Cc1ccc(O)cc1)NC(=O)[C@H](CC(=O)O)NC(=O)[C@H](CO)NC(=O)[C@@H](NC(=O)[C@H](Cc1ccccc1)NC(=O)[C@@H](NC(=O)CNC(=O)[C@H](CCC(N)=O)NC(=O)C1(NC(=O)[C@@H](N)Cc2c[nH]cn2)CCC1)[C@@H](C)O)[C@@H](C)O)C(=O)N[C@@H](CCC(=O)O)C(=O)N[C@@H](Cc1c[nH]c2ccccc12)C(=O)N[C@@H](CC(C)C)C(=O)N[C@@H](CCC(=O)O)C(=O)N[C@@H](CO)C(=O)N[C@@H](C)C(N)=O` [Compound 12, H-H-Ac4c-QGTFTSDYSKYLDE-K([17-carboxy-heptadecanoyl]-isoGlu)-RAKDFIEWLESA-NH2] (H-H[Ac4c]QGTFTSDYSKYLDEK([γGlu-C18 diacid])RAKDFIEWLESA-NH2): the EC50 in series [4] amounted to 0.07 nM. For the same compound, the “Ratio GLP-1/Glucagon” value in series [3] came out at 6.86.
